From US20030130200A1, “Small peptides and methods for treatment of asthma and inflammation” (Hisatek, LLC, priority 1997, published 2003)

What was measured:
mast cells = assay: Rat skin model for inhibition of mast cell degranulation induced by Compound 48/80 (area of capillary permeability/bluing); type: in vivo, rat (male Sprague-Dawley); details: for % Degranulation: percent mast cell degranulation produced by 48/80, 100 nanomoles peptide, 0.15 μg Compound 48/80
From the text: The Rat Skin Model for Determination of Inhibition of Mast Cell Degranulation
Allergy induced asthma results from exposure of substances (allergens) to which an organism has become hypersensitized. Exposure to allergen results in degranulation of mast cells in the lung, releasing leukotrienes and histamines. […] Respiratory symptoms resulting from such an exposure range from mild (itching and sneezing) to potentially fatal (asthma), including in extreme chronic cases death by anaphylaxis.
In this model, the blood plasma of the experimental rat is labeled with the dye trypan blue. This soluble dye is carried in the bloodstream as a passive marker of plasma itself, and is excluded from live cells. Intact blood vessels including the capillary system, retain this dye under normal circumstances. A compound, which induces degranulation of mast cells (resulting in leukotriene and histamine release), is injected into the skin to simulate allergen-induced degranulation. In these experiments, Compound 48/80 was used for this purpose. In the events following leukotriene and histamine release, capillary permeability is increased, and plasma, dyed blue, leaks from capillaries and dyes the skin surrounding the injection site blue. The area of bluing is a measure of the amount of Compound 48/80 injected.
A compound can be tested for “anti-leukotriene” and/or “anti-histamine” activity by mixing it with Compound 48/80 prior to injection.
The rat skin model was undertaken and validated. Various peptides were tested at a predetermined dose for anti-leukotriene and/or anti-histamine activity. The dose selected allowed a general comparison to f-Met-Leu-Phe, which was standard compound for comparison.
A “dose response” titration was performed for some compounds and compared with the standard compound. Observing serial decreases in the size areas of capillary permeability using serially smaller doses of the putative inhibitory compound validates the inhibition of leukotriene and/or histamine release observed in the initial predetermined dose test.
Reagents were obtained from Sigma or Aldrich, with the exception of ketamine, a veterinary anaesthetic that was obtained from various veterinary suppliers. The rats used were male Sprague-Dawley breed, 220-240 g at time of purchase from B&K International.
For the rat skin reaction, rats were anaesthetized with 0.25 ml 10 mg/ml ketamine. 1.0 ml trypan blue in saline (sterile filtered) was administered in a tail vein, and the back of the rat was shaved. Four intradermal injection sites per rat were used for test and control injections.
Compound 48/80 was prepared as a 1.5 mg/ml stock solution in saline. […] Serial dilutions in saline to working levels were prepared just prior to injection of each rat.
Peptides were prepared as a 23 mM stock solution in DMSO, and stored at −20° C. between experiments. At the time of use, the frozen stock solutions were thawed, and appropriate aliquots added to dilutions of Compound 48/80, along with appropriate amounts of DMSO, to result in the ratio of 5 μl DMSO to 0.1 ml aqueous Compound 48/80.
For injections, 0.1 ml Compound […], +/− test compounds were injected intradermally into anaesthetized, dyed, and shaved rats. Following a 15 minute incubation, the rats were sacrificed by cervical dislocation and the back skin was evulsed and placed on a light box. An image of the backlit skin was digitized using a CCD video capture camera and compatible hardware/software. The digitized image was analyzed using a scientific graphics analysis software package, and the areas of capillary permeability (bluing) were integrated and digital values were obtained for further analysis.
A dose response curve was generated using Compound 48/80 at various doses from ca. 0.01 μg through ca 15 μg. […] A dose of 0.15 μg of Compound 48/80 was selected for conducting further tests.
A dose response curve was prepared for the standard compound, f-Met-Leu-Phe, using the selected dose of 0.15 μg Compound 48/80. […]

[1] = tested on: OVA-induced asthmatic mice; assay: OVA-induced bronchial asthma mouse model, Standard/Resolution protocols, drug before each i.n. challenge; type: in vivo, mouse (female BALB/c); details: 1-, 2- and 3-month groups, versus OVA
From the text: The OVA-Induced Bronchial Asthma Mouse Model for Inhibition of Mast Cell Degranulation
Reagents: Crystalline OVA was obtained from Pierce Chem. Co. (Rockford, Ill.) aluminum potassium sulfate (alum) from Sigma Chem. Co. (St. Louis, Mo.), pyrogen-free distilled water from Baxter, Healthcare Corporation (Deerfield, Ill.), 0.9% sodium chloride (normal saline) from Lymphomed (Deerfield, Ill.) and Trappsol™ HPB-L100 (aqueous hydroxypropyl beta cyclodextrin; 45 wt/vol % aqueous solution) from Cyclodextrin Technologies Development, Inc. (Gainesville, Fla.). The OVA (500 μg/ml in normal saline) was mixed with equal volumes of 10% (wt/vol) alum in distilled water. The mixture (pH 6.5 using 10 N NaOH) after incubation for 60 minutes at room temperature underwent centrifugation at 750 g for 5 minutes; the pellet was resuspended to the original volume in distilled water and used within one hour.
The selective 5-lipoxtgenase inhibitor, Zileuton (N-[1-benzo[b]thien-2-ylethyl]-N-hydroxyurea; J. Pharmacol Exp Ther. 1991; 256: 929-937), was kindly provided by Drs. Bell and George W. Carter (Abbott Laboratories, Abbott Part, Ill.). Zileuton was dissolved in Trappsol.™. Histatek, Inc. (Seattle, Wash.) provided the mast cell degranulation inhibitor, f-Met-Leu-Phe-Phe (“HK-X”).
Female BALB/c […] (6-8 wk of age at purchase; D and K, Seattle Wash.) were housed under conventional conditions for the studies.
Allergen Immunization/Challenge Protocols: Mice received an i.p. injection of 0.2 ml (100 μg) of OVA with alum on the different protocols of Standard (FIG. 5A) and Resolution (FIG. 5B) (J. Exp Med. 1996; 184: 1483-1494). According to the different protocols, mice were anesthetized with 0.2 ml i.p. of ketamine (0.44 mg/ml)/xylazine (6.3 mg/ml) in normal saline before receiving an intranasal (i.n.) does of 100 μg OVA in 0.05 ml normal saline and an i.n. dose of 50 μg OVA in 0.05 ml normal saline separately on different days. Two control groups were used. Accordingly, the first group received normal saline with alum i.p. and normal saline without alum i.n.; the second group received OVA with alum i.p., OVA without alum i.n., and normal saline, alone.
The trachea and left lung (the right lung is used for bronchoalveolar lavage (“BAL”)) were obtained and fixed in 10% neutral formaldehyde solution at room temperature for 6˜15h. After being embedded in paraffin, the tissues were cut into 5-um sections and processed with the different staining or immunolabling further. Discombe's eosinophil staining was used for counting the cell numbers with the counterstain of methylene blue. The eosinophil number per unit airway area (2,200 μm^2) was determined by morphometry (J. Pathol. 1992; 166: 395-404; Am Rev Respir Dis. 1993; 147:448-456). Fibrosis was identified with the Masson's trichrome staining. Airway mucus was identified by the following staining method: methylene blue, hematoxylin and eosin, mucicarmine, alcian blue, and alcian blue/periodic acid-Schiff (PAS) reaction (Troyer, H., “Carbohydrates” in Principles and Techniques of Histochemistry, Little, Brown and Company, Boston, Mass., 1980: 89-121; Sheehan, D. C., et al., “Carbohydrates” in Theory and Practice of Histotechnology, Battle Press, Columbus, Ohio, 1980: 159-179). Mucin was stained with mucicarmine solution; metanil yellow counterstain was employed.
Acidic mucin and sulfated mucosubstances were stained with alcian blue, pH 2.5; nuclear fast red counterstain was used. Neutral and acidic mucosubstances were identified by alcian blue. pH 2.5, and PAS reaction. The degree of mucus plugging of the airways (0.5-0.8 mm in diameter) was also assessed by morphometry. The percent occlusion of airway diameter by mucus was classified on a semiquantitative scale from 0 to 4+ as described in Figure Legends. The histologic and morphometric analyses were performed by individuals blinded to the protocol design. […]

Molecule	% Degranulation (mast cells)	Inhibition of degranulation induced by Compound 48/80, dose response curve (mast cells; doses of 0 to about 230 nM peptide, 0.15 μg Compound 48/80 (FIG. 2, FIG. 3))	Reduction of airway eosinophils over time course [1]
f-Met-Leu-Tyr [Example 10]	30%		
N-acetyl-Met-Leu-Phe [Example 3]	98%		
f-Met-Leu-Phe [Example 2, reference compound]	60%	Inhibition of degranulation induced by Compound 48/80 was clearly shown	
CC(c1cc2ccccc2s1)N(O)C(N)=O (centres unmarked) [Zileuton, N-[1-benzo[b]thien-2-ylethyl]-N-hydroxyurea, reference compound]			reduced eosinophils generally through 1-3 month
